From PMC6792350 (Environmental Health Perspectives, 2019)

Columns and labels:
in vivo = assay: in vivo
Method: Table 1 summarizes the protocol of the experiments and the plasma and urine datasets further considered for TK analyses.
For administrations by gavage, BPA powder was dissolved in ethanol–corn oil (1:9, vol:vol) at 100mg/mL (Exp. 1).
(§1) The plasma analytes concentration–time data from individual piglets were used to derive the maximum concentration (Cmax), and the time to maximum concentration (Tmax). The area under the plasma concentration–time curves from dosing time to the time of the last measurable concentration ( AUC0–tlast ) were calculated using the linear trapezoidal rule (Equation 1). (1) AUC0–tlast=∑0tlast(Ci−1+Ci/2)×(ti−ti−1) where Ci is the concentration obtained at the time i ( ti ).
(§2) The area under the plasma concentration time curve from t=0 to infinity ( AUC0–inf ) was obtained using Equation 2. (2) AUC0–inf=AUC0–tlast+AUCtlast–inf where AUCtlast–inf is the area extrapolated from the last observation to infinity, calculated according to Equation 3: (3) AUCtlast–inf=Clast/λz where Clast is the last observed quantifiable plasma concentration, and λz is the slope of the terminal phase, as estimated by linear regression using the best fit option of Phoenix®.

[1] = human; cited from earlier work
[2] = Cumulative urinary excretion after IV and oral dosing in piglets
Method: Blood samples were collected in heparinized polypropylene tubes, immediately chilled in ice and centrifuged for 10 min at 3,000×g at 4°C, and the supernatant plasma was stored in polypropylene tubes at −20°C until assay. Total urine was filtered through a nylon mesh ( 250μm ) and collected in glass containers and chilled in ice. The volume of each urine sample and the sampling time were recorded. A urine sample was immediately chilled in ice and centrifuged for 10 min at 3,000×g at 4°C and stored at −20°C until assayed.
Analytes were quantified by Acquity UPLC-MS/MS (Waters Corporation).
All TK analyses were performed using the Phoenix® NLME (version 8.0; Pharsight Corporation). The plasma mass concentrations were converted into molar concentrations before analysis.

[3] = design: method as in EFSA CEF Panel 2015; conditions: ref EFSA CEF Panel 2015; cited from earlier work
[4] = no reference given; cited from earlier work
[5] = Noncompartmental toxicokinetic analysis of plasma after IV dosing in piglets
Method: Table 1 summarizes the protocol of the experiments and the plasma and urine datasets further considered for TK analyses. A first experiment (Exp. 1) was performed in 8 male piglets age 42 d ( 20.8±1.6kg BW) to investigate oral BPA TK. […] BPA data obtained after IV BPA administrations had already been used to evaluate human BPA clearance using an allometric approach ([Collet et al. 2015]).
For the IV administrations, BPA powder was dissolved in ethanol–propylene glycol (1:49, vol:vol) at 50mg/mL (Exp.1 and 2) and in ethanol–saline (1:2, vol:vol) at 23mg/mL (Exp. 5).
During the first 24 h of sampling, the piglets were housed individually in stainless steel cages.
as §1, §2

[6] = Population semiphysiologically based 9-compartment TK model (NLME) of plasma and urine data in piglets; conditions: for bioavailability: po; for k el: plasma and urine, other: intravenous and oral (data sets combined), tvK30, elimination rate constant from plasma to urine
Method: The NLME model was therefore developed by combining the plasma and urinary data sets from the five TK experiments carried out in piglets, except for the urinary BPA concentration obtained after oral administration of BPA.
Different compartmental models and submodels were tested and compared using the likelihood ratio test (LRT). The primary parameters of the model, namely the volumes of distribution ( VBPA , VBPAG , VBPS , VBPSG ) and the first-order rate constants ( Kij ) and their associated precisions [standard error (SE)] were estimated by minimizing an objective function value (OFV) expressed as minus twice the log of the likelihood estimation ( −2LL ).
The between-subject variability (BSV) of the parameters was evaluated using the exponential model θparameter_i=θtv_parameter×exp(ηi) , where θparameter_i is the parameter estimated for the i^th individual, θtv_parameter is the typical population value of the parameter, and ηi is the deviation associated with the i^th individual from the corresponding value of the parameter at the population level. The distribution of ηi was assumed to be normal with a mean of 0 and a variance ω² . The BSV was reported as a coefficient of variation (CV) in the original scale CV(%)=100× exp (ω^2)−1 .
The residual variance was modeled using a combined additive and proportional error model Cobsij=Cpredij(1+ε1ij)+ε2ij where Cobsij and Cpredij are respectively the j^th observed and predicted concentrations for the i^th individual and ε1ij and ε2ij the multiplicative and additive residual errors.
The bootstrap tool (20 replicates) was used to evaluate the mean, median, SE, and coefficient of variation of the parameter estimates. The predictive ability of the model was checked graphically by plotting Visual Predictive Check plots to compare the observed data with the selected quantiles (here 20th, 50th and 80th percentiles) of data simulated using the model and obtained from 200–1,000 replicates from each animal based on the structure of the original data (i.e., dosing, timing and number of samples).
For the LRT test, the critical value of the χ^2 distribution considered for a given nominal risk and a given number of degrees of freedom was obtained using the Excel function CHISQ.INV.RT().
Figure 1. Schematic representation of the compartmental model. […] The link between the two central compartments was modeled with a compartment (CP2) that should be viewed as the liver. […] The fraction of absorbed BPA that is not hepatically transformed reaches the CP3 via K23 . The exchanges between CP2 and CP3 are bilateral, K32 being the rate constant between CP3 and CP2 and K23 the rate constant between CP2 and CP3. […] It was assumed that no phase-two metabolite other than BPAG (BPSG) was formed.
(12) Bioavailability=K12/K12+K110+K10×(1−K25/K25+K23) with K10 , K12 , K110 , K23; K25 as defined above.

In the case of `CC(C)(c1ccc(O)cc1)c1ccc(O)cc1` [BPA, bisphenol A], the AUClast/dose (in vivo; both, pig, in vivo, po) is reported as 0.0024±0.0027 μmol×h/L per μmol/kg BW, the “Cl_F (apparent clearance)” value (in vivo; both, pig, in vivo, po) is reported as 1270 ± 1250 L/kg/h and the Tmax (in vivo; both, pig, in vivo, po, Tmax) is reported as 57 ± 33 min. For the same compound, the Tmax (in vivo; both, pig, in vivo, po, time to maximal plasma concentration) was ~60 min, the “mean fraction of total (parent plus glucuronide) in plasma that is unconjugated” value (in vivo; oral dosing, piglets) was 0.16% and the intestinal intrinsic clearance [1] was 0.433 L/kg/h. For the same compound, the liver intrinsic clearance [1] was 3.67 L/kg/h, the “part of the dose eliminated in urine” value ([2]; 3 h after dosing) was “About half” and the “unconjugated compound in urine, fraction of IV dose” value ([2]; IV BPA and BPS doses) was 0.044±0.028%. The “tolerable daily intake (TDI), fixed temporarily” value [3] was 4 μg/kg BW per day, the LogP [4] was 3.3 and the “time after which plasma concentrations were below the LOQ” value ([5]; after IV BPA and BPS administration) was > 12 h. The AUC0-tlast/dose ([5]; pig, in vivo, iv) was 0.34±0.14 μmol×h/L per μmol/kg, the clearance ([5]; pig, in vivo, iv) was 56.8 mL/min/kg and the “tvK10, rate constant of unabsorbed compound from the gastrointestinal tract, Mean” value ([6]; bootstrap mean) was 0.223 h⁻¹. The “tvK12, rate constant of absorption by enterocytes passing directly into the portal blood, Mean” value ([6]; bootstrap mean) was 0.365 h⁻¹, the “tvK23, distribution rate constant liver to plasma, Mean” value ([6]; bootstrap mean) was 1.53 h⁻¹ and the “tvK32, distribution rate constant, Mean” value ([6]; bootstrap mean) was 3.72 h⁻¹. For the same compound, the “tvK34, distribution rate constant, Mean” value ([6]; bootstrap mean) was 5.90 h⁻¹, the “tvK43, distribution rate constant, Mean” value ([6]; bootstrap mean) was 3.89 h⁻¹ and the “tvK110, rate constant of compound absorbed by enterocytes locally subjected to glucuronidation, Mean” value ([6]; bootstrap mean) was 0.349 h⁻¹. The “tvK10, rate constant of unabsorbed compound from the gastrointestinal tract, Median” value ([6]; bootstrap median) was 0.219 h⁻¹, the “tvK12, rate constant of absorption by enterocytes passing directly into the portal blood, Median” value ([6]; bootstrap median) was 0.371 h⁻¹ and the “tvK23, distribution rate constant liver to plasma, Median” value ([6]; bootstrap median) was 1.32 h⁻¹. For the same compound, the “tvK32, distribution rate constant, Median” value ([6]; bootstrap median) was 3.31 h⁻¹, the “tvK34, distribution rate constant, Median” value ([6]; bootstrap median) was 4.14 h⁻¹ and the “tvK43, distribution rate constant, Median” value ([6]; bootstrap median) was 3.68 h⁻¹. The “tvK110, rate constant of compound absorbed by enterocytes locally subjected to glucuronidation, Median” value ([6]; bootstrap median) was 0.318 h⁻¹, the CL renal ([6]; both, pig, in vivo) was 2 mL/h/kg and the “mean volume of the central compartment” value ([6]; both, pig, in vivo) was 1.0 L/kg. For the same compound, the “metabolic hepatic clearance as fraction of plasma clearance” value ([6]; both, pig, in vivo) was “higher than 99%”, the “renal clearance as fraction of plasma clearance estimated by noncompartmental analysis” value ([6]; both, pig, in vivo) was 0.06% and the “tvV, volume of the central compartment, Mean” value ([6]; both, pig, in vivo) was 1.03 L/kg. For the same compound, the “tvV, volume of the central compartment, Median” value ([6]; both, pig, in vivo) was 1.00 L/kg, the bioavailability ([6]; both, pig, in vivo) was 0.5% and the k el ([6]; both, pig, Mean, bootstrap mean) was 7.22e-07 s⁻¹. For the same compound, the k el ([6]; both, pig, Median, bootstrap median) was 5.56e-07 s⁻¹, the “fraction of the absorbed dose glucuronidated in the gut” value ([6]; oral, % of absorbed dose) was 44% and the “fraction of the absorbed dose reaching the liver / first-pass glucuronidated in the liver” value ([6]; oral, % of absorbed dose) was 53%. For the same compound, the “fraction of the dose reaching the liver unchanged” value ([6]; oral, % of administered dose) was 40.3%, the “fraction of the dose subjected to hepatic first-pass effect” value ([6]; oral, % of administered dose) was 39.9% and the “hepatic first-pass effect: fraction of compound reaching the liver that is glucuronidated” value ([6]; oral, % of the fraction reaching the liver) was 99%. The “Fraction of absorbed BPA undergoing a first-pass effect (gut and liver), Mean” value ([6]; oral, bootstrap mean) was 0.988, the “Fraction of administered compound glucuronidated by the gastro-intestinal tract, Mean” value ([6]; oral, bootstrap mean) was 0.360 and the “Fraction of administered compound reaching the liver by the portal blood flow, Mean” value ([6]; oral, bootstrap mean) was 0.405. The “fraction absorbed by the gastro-intestinal tract, Mean” value ([6]; oral, bootstrap mean) was 0.765, the “Fraction of absorbed BPA undergoing a first-pass effect (gut and liver), Median” value ([6]; oral, bootstrap median) was 0.989 and the “Fraction of administered compound glucuronidated by the gastro-intestinal tract, Median” value ([6]; oral, bootstrap median) was 0.340. The “Fraction of administered compound reaching the liver by the portal blood flow, Median” value ([6]; oral, bootstrap median) was 0.403, the “fraction absorbed by the gastro-intestinal tract, Median” value ([6]; oral, bootstrap median) was 0.766 and the CL renal ([6]; pig, in vivo) was 2 mL/h/kg. For the same compound, the “renal clearance, Median” value ([6]; pig, in vivo) was 2 mL/h/kg and the bioavailability ([6]; pig, in vivo) was 0.5%.
